{"source": "PubChem BioAssay (NCI)", "experiment_in_all_cases": "NCI tumour cell line growth inhibition, 384-well format", "key": {"[1]": {"system": "RPMI-8226 leukemia"}, "[2]": {"system": "HOP-92 NSCLC"}, "[3]": {"system": "TK-10 renal"}, "[4]": {"system": "CCRF-CEM leukemia"}, "[5]": {"system": "SN12C renal"}, "[6]": {"system": "ACHN renal"}, "[7]": {"system": "HT29 colon"}, "[8]": {"system": "OVCAR-8 ovarian"}, "[9]": {"system": "HCC-2998 colon"}, "[10]": {"system": "SW-620 colon"}, "[11]": {"system": "BT-549 breast"}, "[12]": {"system": "NCI-H522 lung"}, "[13]": {"system": "NCI-H23 lung"}, "[14]": {"system": "MCF7 breast"}, "[15]": {"system": "SNB-19 CNS"}, "[16]": {"system": "SK-MEL-28 melanoma"}, "[17]": {"system": "HL-60(TB) leukemia"}, "[18]": {"system": "SF-539 CNS"}, "[19]": {"system": "HS 578T breast"}, "[20]": {"system": "786-0 renal"}, "[21]": {"system": "UO-31 renal"}, "[22]": {"system": "M14 melanoma"}, "[23]": {"system": "NCI/ADR-RES ovarian"}, "[24]": {"system": "NCI-H460 NSCLC"}, "[25]": {"system": "CAKI-1 renal"}, "[26]": {"system": "T-47D breast"}, "[27]": {"system": "MDA-MB-435 melanoma"}, "[28]": {"system": "UACC-62 melanoma"}, "[29]": {"system": "RXF 393 renal"}, "[30]": {"system": "PC-3 prostate"}, "[31]": {"system": "MOLT-4 leukemia"}, "[32]": {"system": "IGROV1 ovarian"}, "[33]": {"system": "NCI-H322M lung"}, "[34]": {"system": "K-562 leukemia"}, "[35]": {"system": "OVCAR-4 ovarian"}, "[36]": {"system": "MDA-MB-468 breast"}, "[37]": {"system": "EKVX NSCLC"}, "[38]": {"system": "A498 renal"}, "[39]": {"system": "LOX IMVI melanoma"}, "[40]": {"system": "COLO 205 colon"}, "[41]": {"system": "SR leukemia"}, "[42]": {"system": "A549 NSCLC"}, "[43]": {"system": "SNB-75 CNS"}, "[44]": {"system": "KM12 colon"}, "[45]": {"system": "NCI-H226 lung"}, "[46]": {"system": "SK-MEL-5 melanoma"}, "[47]": {"system": "HOP-62 NSCLC"}}, "note": "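GI50 is the concentration that inhibits growth by half. The concentration for full growth arrest is given as TGI.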", "data": [{"molecule": "C=CC(=O)Nc1cc(Nc2nccc(-c3cn(C)c4ccccc34)n2)c(OC)cc1N(C)CCN(C)C", "values": [{"measurement": "GI50", "setting": "[1]", "result": 980, "unit": "nM"}, {"measurement": "TGI", "setting": "[1]", "result": 2230, "unit": "nM"}, {"measurement": "GI50", "setting": "[2]", "result": 1150, "unit": "nM"}, {"measurement": "TGI", "setting": "[2]", "result": 2380, "unit": "nM"}, {"measurement": "GI50", "setting": "[3]", "result": 317, "unit": "nM"}, {"measurement": "TGI", "setting": "[3]", "result": 1770, "unit": "nM"}, {"measurement": "GI50", "setting": "[4]", "result": 1390, "unit": "nM"}, {"measurement": "TGI", "setting": "[4]", "result": 2690, "unit": "nM"}, {"measurement": "GI50", "setting": "[5]", "result": 1330, "unit": "nM"}, {"measurement": "TGI", "setting": "[5]", "result": 3130, "unit": "nM"}, {"measurement": "GI50", "setting": "[6]", "result": 453, "unit": "nM"}, {"measurement": "TGI", "setting": "[6]", "result": 2210, "unit": "nM"}, {"measurement": "GI50", "setting": "[7]", "result": 1610, "unit": "nM"}, {"measurement": "TGI", "setting": "[7]", "result": 2990, "unit": "nM"}, {"measurement": "GI50", "setting": "[8]", "result": 1420, "unit": "nM"}, {"measurement": "TGI", "setting": "[8]", "result": 2760, "unit": "nM"}, {"measurement": "GI50", "setting": "[9]", "result": 767, "unit": "nM"}, {"measurement": "TGI", "setting": "[9]", "result": 2000, "unit": "nM"}, {"measurement": "GI50", "setting": "[10]", "result": 1760, "unit": "nM"}, {"measurement": "TGI", "setting": "[10]", "result": 3180, "unit": "nM"}, {"measurement": "GI50", "setting": "[11]", "result": 1330, "unit": "nM"}, {"measurement": "TGI", "setting": "[11]", "result": 2620, "unit": "nM"}, {"measurement": "GI50", "setting": "[12]", "result": 49.5, "unit": "nM"}, {"measurement": "TGI", "setting": "[12]", "result": 843, "unit": "nM"}, {"measurement": "GI50", "setting": "[13]", "result": 1870, "unit": "nM"}, {"measurement": "TGI", "setting": "[13]", "result": 3670, "unit": "nM"}, {"measurement": "GI50", "setting": "[14]", "result": 1180, "unit": "nM"}, {"measurement": "TGI", "setting": "[14]", "result": 2580, "unit": "nM"}, {"measurement": "GI50", "setting": "[15]", "result": 3020, "unit": "nM"}, {"measurement": "TGI", "setting": "[15]", "result": 8810, "unit": "nM"}, {"measurement": "GI50", "setting": "[16]", "result": 1660, "unit": "nM"}, {"measurement": "TGI", "setting": "[16]", "result": 3040, "unit": "nM"}, {"measurement": "GI50", "setting": "[17]", "result": 756, "unit": "nM"}, {"measurement": "TGI", "setting": "[17]", "result": 1940, "unit": "nM"}, {"measurement": "GI50", "setting": "[18]", "result": 1440, "unit": "nM"}, {"measurement": "TGI", "setting": "[18]", "result": 2760, "unit": "nM"}, {"measurement": "GI50", "setting": "[19]", "result": 1550, "unit": "nM"}, {"measurement": "TGI", "setting": "[19]", "result": 3040, "unit": "nM"}, {"measurement": "GI50", "setting": "[20]", "result": 1310, "unit": "nM"}, {"measurement": "TGI", "setting": "[20]", "result": 2600, "unit": "nM"}, {"measurement": "GI50", "setting": "[21]", "result": 746, "unit": "nM"}, {"measurement": "TGI", "setting": "[21]", "result": 2120, "unit": "nM"}, {"measurement": "GI50", "setting": "[22]", "result": 1960, "unit": "nM"}, {"measurement": "TGI", "setting": "[22]", "result": 3390, "unit": "nM"}, {"measurement": "GI50", "setting": "[23]", "result": 1130, "unit": "nM"}, {"measurement": "TGI", "setting": "[23]", "result": 2370, "unit": "nM"}, {"measurement": "GI50", "setting": "[24]", "result": 1760, "unit": "nM"}, {"measurement": "TGI", "setting": "[24]", "result": 3190, "unit": "nM"}, {"measurement": "GI50", "setting": "[25]", "result": 703, "unit": "nM"}, {"measurement": "TGI", "setting": "[25]", "result": 2080, "unit": "nM"}, {"measurement": "GI50", "setting": "[26]", "result": 957, "unit": "nM"}, {"measurement": "TGI", "setting": "[26]", "result": 2380, "unit": "nM"}, {"measurement": "GI50", "setting": "[27]", "result": 2000, "unit": "nM"}, {"measurement": "TGI", "setting": "[27]", "result": 3550, "unit": "nM"}, {"measurement": "GI50", "setting": "[28]", "result": 1640, "unit": "nM"}, {"measurement": "TGI", "setting": "[28]", "result": 3020, "unit": "nM"}, {"measurement": "GI50", "setting": "[29]", "result": 806, "unit": "nM"}, {"measurement": "TGI", "setting": "[29]", "result": 2150, "unit": "nM"}, {"measurement": "GI50", "setting": "[30]", "result": 1610, "unit": "nM"}, {"measurement": "TGI", "setting": "[30]", "result": 3090, "unit": "nM"}, {"measurement": "GI50", "setting": "[31]", "result": 921, "unit": "nM"}, {"measurement": "TGI", "setting": "[31]", "result": 2150, "unit": "nM"}, {"measurement": "GI50", "setting": "[32]", "result": 440, "unit": "nM"}, {"measurement": "TGI", "setting": "[32]", "result": 1880, "unit": "nM"}, {"measurement": "GI50", "setting": "[33]", "result": 179, "unit": "nM"}, {"measurement": "TGI", "setting": "[33]", "result": 1120, "unit": "nM"}, {"measurement": "GI50", "setting": "[34]", "result": 1160, "unit": "nM"}, {"measurement": "TGI", "setting": "[34]", "result": 2390, "unit": "nM"}, {"measurement": "GI50", "setting": "[35]", "result": 2020, "unit": "nM"}, {"measurement": "TGI", "setting": "[35]", "result": 3540, "unit": "nM"}, {"measurement": "GI50", "setting": "[36]", "result": 37.8, "unit": "nM"}, {"measurement": "TGI", "setting": "[36]", "result": 189, "unit": "nM"}, {"measurement": "GI50", "setting": "[37]", "result": 617, "unit": "nM"}, {"measurement": "TGI", "setting": "[37]", "result": 2170, "unit": "nM"}, {"measurement": "GI50", "setting": "[38]", "result": 1120, "unit": "nM"}, {"measurement": "TGI", "setting": "[38]", "result": 2530, "unit": "nM"}, {"measurement": "GI50", "setting": "[39]", "result": 2060, "unit": "nM"}, {"measurement": "TGI", "setting": "[39]", "result": 3500, "unit": "nM"}, {"measurement": "GI50", "setting": "[40]", "result": 1590, "unit": "nM"}, {"measurement": "TGI", "setting": "[40]", "result": 2950, "unit": "nM"}, {"measurement": "GI50", "setting": "[41]", "result": 602, "unit": "nM"}, {"measurement": "TGI", "setting": "[41]", "result": 1290, "unit": "nM"}, {"measurement": "GI50", "setting": "[42]", "result": 1340, "unit": "nM"}, {"measurement": "TGI", "setting": "[42]", "result": 3590, "unit": "nM"}, {"measurement": "GI50", "setting": "[43]", "result": 2710, "unit": "nM"}, {"measurement": "TGI", "setting": "[43]", "result": 6410, "unit": "nM"}, {"measurement": "GI50", "setting": "[44]", "result": 2560, "unit": "nM"}, {"measurement": "TGI", "setting": "[44]", "result": 5720, "unit": "nM"}, {"measurement": "GI50", "setting": "[45]", "result": 863, "unit": "nM"}, {"measurement": "TGI", "setting": "[45]", "result": 2200, "unit": "nM"}, {"measurement": "GI50", "setting": "[46]", "result": 1220, "unit": "nM"}, {"measurement": "TGI", "setting": "[46]", "result": 2230, "unit": "nM"}, {"measurement": "GI50", "setting": "[47]", "result": 1560, "unit": "nM"}, {"measurement": "TGI", "setting": "[47]", "result": 3370, "unit": "nM"}]}]}
